# Source: US20250228835A1, “PYRIDINYLOXYPYRIDINES AND RELATED COMPOUNDS AND THEIR USE IN TREATING MEDICAL CONDITIONS” (Rectify Pharmaceuticals, Inc., priority 2024, published 2025)
# Molecular target: T1, ABCD2 WT (Homo sapiens, UniProt Q9UBJ2)
# T1 construct: expressed in transfected cells
# T1 sequence (Q9UBJ2 1-740): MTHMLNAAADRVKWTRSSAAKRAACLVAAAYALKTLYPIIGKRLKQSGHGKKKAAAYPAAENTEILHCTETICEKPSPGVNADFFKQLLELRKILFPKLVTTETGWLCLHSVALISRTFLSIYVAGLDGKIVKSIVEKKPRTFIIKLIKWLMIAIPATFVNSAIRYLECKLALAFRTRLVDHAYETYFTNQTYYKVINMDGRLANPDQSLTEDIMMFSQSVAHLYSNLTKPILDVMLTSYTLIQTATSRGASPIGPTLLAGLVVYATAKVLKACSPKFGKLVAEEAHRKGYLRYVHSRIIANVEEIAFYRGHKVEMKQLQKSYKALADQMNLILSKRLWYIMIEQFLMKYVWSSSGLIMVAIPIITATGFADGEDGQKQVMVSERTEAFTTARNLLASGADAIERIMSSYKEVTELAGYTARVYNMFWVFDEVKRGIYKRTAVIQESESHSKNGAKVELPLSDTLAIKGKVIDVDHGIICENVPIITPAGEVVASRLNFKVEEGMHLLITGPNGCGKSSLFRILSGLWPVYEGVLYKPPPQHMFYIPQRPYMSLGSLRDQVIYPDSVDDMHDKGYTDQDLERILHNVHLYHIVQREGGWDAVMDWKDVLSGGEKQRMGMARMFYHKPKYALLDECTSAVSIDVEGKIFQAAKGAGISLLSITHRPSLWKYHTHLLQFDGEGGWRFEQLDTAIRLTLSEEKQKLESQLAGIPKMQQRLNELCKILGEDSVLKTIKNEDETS
# Test: D2 correction dose-response assay: ABCD2 WT HiBit protein expression
# Assay type: cell-based
# Settings: HEK-293/ABCD2 WT cells, 24 hours treatment, HiBit luminescence; class combines EC50 and Mean MaxAct (fold); read-out: ABCD2 WT EC50, Emax
# In short: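 HEK-293 cells stably expressing HiBit-tagged human ABCD2 WT were treated with 11 doses (3-fold dilutions, top final 30 μM, 0.3% DMSO) for 24 h at 37 °C. Expression was measured by HiBit lytic luminescence after 1 h at 25 °C, giving EC50 and Emax.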
row,Structure (SMILES),EC50 [µM]
1,Cc1cc(C)c(Oc2nc(-c3cncc(C#N)c3)ccc2NS(=O)(=O)C2COC2)c(C)c1 [Compound I-267],< 1
2,Cc1cc(C)c(Oc2nc(-c3cncc(C#N)c3)ccc2NS(C)(=O)=O)c(C2CC2)n1 [Compound I-268],> 25
3,Cc1cc(C)c(Oc2nc(-c3ccc(C#N)nc3C)ccc2NS(C)(=O)=O)c(C)n1 [Compound I-269],1 to 10
4,Cc1cc(C)c(Oc2nc(-c3cc(C#N)cnc3C)ccc2NS(C)(=O)=O)c(C)n1 [Compound I-270],1 to 10
5,Cc1cc(C2CC2)cc(C)c1Oc1nc(-c2cncc(C#N)c2)ccc1NS(C)(=O)=O [Compound I-271],> 25
6,Cc1cc(C)c(Oc2nc(-n3cnc(C#N)c3)ccc2N(C)S(C)(=O)=O)c(C)c1 [Compound I-272],> 25
7,Cc1cc(C)c(Oc2nc(-n3cnc(C#N)c3)ccc2NS(C)(=O)=O)c(C)c1 [Compound I-273],< 1
8,Cc1cc(C)c(Oc2nc(-n3cc(C#N)cn3)ccc2NS(C)(=O)=O)c(C)c1 [Compound I-274],1 to 10
9,Cc1cc(C)c(Oc2nc(-c3cncc(C#N)c3)cnc2NS(C)(=O)=O)c(C)c1 [Compound I-275],< 1
10,Cc1cc(C)c(Oc2nc(-c3cncc(C#N)c3)ccc2NS(=O)(=O)C(C)C)c(C)n1 [Compound I-276],> 25
11,Cc1cc(C)c(Oc2nc(-c3cncc(Cl)c3)cnc2NS(C)(=O)=O)c(C)c1 [Compound I-277],< 1
12,Cc1cc(C)c(Oc2nc(-c3cncc(S(C)(=O)=O)c3)ccc2NS(C)(=O)=O)c(C)c1 [Compound I-278],1 to 10
13,Cc1cc(C)c(Oc2nc(-c3cncc(C#N)c3)ccc2S(C)(=N)=O)c(C)c1 (stereo not drawn) [Compound I-279],10 to 25
14,Cc1cc(C)c(Oc2nc(-c3cncc(C#N)c3)ccc2S(N)(=O)=O)c(C)c1 [Compound I-280],< 1
15,CNS(=O)(=O)c1ccc(-c2cncc(C#N)c2)nc1Oc1c(C)cc(C)cc1C [Compound I-281],< 1
16,Cc1cc(C)c(Oc2nc(-c3cc(Cl)cnc3C)ccc2NS(C)(=O)=O)c(C)n1 [Compound I-282],1 to 10
17,Cc1cc(C)c(Oc2nc(-c3cn(C)nc3C)ccc2NS(C)(=O)=O)c(C)c1 [Compound I-283],1 to 10
18,Cc1cc(C)c(Oc2nc(-c3cncc(C#N)c3)ncc2NS(C)(=O)=O)c(C)n1 [Compound I-284],< 1
19,Cc1cc(C)c(Oc2nc(N3CCN(C(=O)C4CC4)CC3)ccc2S(N)(=O)=O)c(C)c1 [Compound I-285],10 to 25
20,Cc1cc(C2CC2)nc(C2CC2)c1Oc1nc(-c2cncc(C#N)c2)ccc1S(=N)(=O)C1CC1 (stereo not drawn) [Compound I-317],1 to 10
21,Cc1cc(C(F)F)cc(C2CC2)c1Oc1nc(-c2cncc(C#N)c2)ccc1S(=N)(=O)C1CC1 (stereo not drawn) [Compound I-319],1 to 10
22,Cc1cc(C(F)F)nc(C2CC2)c1Oc1nc(-c2cncc(C#N)c2)ccc1S(=O)(=O)NC1CCOCC1 [Compound I-320],> 25
23,Cc1cc(C(F)F)nc(C2CC2)c1Oc1nc(-c2cncc(C#N)c2)ccc1S(=O)(=O)NC1COC1 [Compound I-321],1 to 10
24,Cc1cc(C2CC2)nc(C2CC2)c1Oc1nc(-c2cncc(C#N)c2)ccc1S(=O)(=O)NC1CCOCC1 [Compound I-322],> 25
25,Cc1cc(C)c(Oc2[nH]c(-c3cncc(C#N)c3)cc(=O)c2NS(C)(=O)=O)c(C)n1 [Compound I-325],10 to 25
26,Cc1cc(C)c(Oc2nc(-c3cc(C#N)c[nH]c3=O)ccc2NS(C)(=O)=O)c(C)n1 [Compound I-326],> 25
27,Cc1cc(C)c(Oc2nc(-c3cncc(C#N)c3)c(O)cc2NS(C)(=O)=O)c(C)n1 [Compound I-327],< 1
